Experimental data published in US6677324B1, “Combination preparation of estrogen and anti-estrogen” (Schering Aktiengesellschaft, priority 1998, dated 2004).

Tests used:
uterus and bone = assay: Selective bone action test: uterus weight, uterine epithelium depth and trabecular bone density of proximal tibia in ovarectomized rats; format: in vivo, rat; conditions: combination with 17β-oestradiol, ovarectomized rats 3 months old, treated 28 days, FIGS. 1-3
Experimental: (§1) In the FIG. 1 means: control (only solvent), 2: 0.3 μg of oestradiol, 3: 75 μg of test substance, 4: 75 μg of test substance+0.03 μg of oestradiol, 5: 75 μg of test substance+0.1 μg of oestradiol, 6: 75 μg of test substance+0.3 μg of oestradiol, 7: 75 μg of test substance+1.0 μg of oestradiol, 8: 75 μg of test substance+3.0 μg of oestradiol.
as §1, with “μg of oestradibl, 3: 75” for “μg of oestradiol, 3: 75”
The doses of the oestrogen and antioestrogen to be used for the selective bone action test must be established to begin with in preliminary investigations.
The dose of the antioestrogen to be used is determined by an antiuterus growth test in the oestradiol-substituted, ovarectomized rat. […]
After 28 days, the animals are killed and the uterus weight, as well as the trabecular bone density in the proximal tibia, is measured. The uterus weight is determined by weighing the uterus moist weight immediately after organ removal. The trabecular bone density is determined ex vivo by bone density measurements in the secondary spongiosa of the proximal tibia using a QCT (Stratec XCT 960A).

central nervous system = conditions: Biegon et al. 1996; cited from earlier work

| SMILES | selective action of the combination on bone versus uterus (uterus and bone) | action in the central nervous system (central nervous system) |
| --- | --- | --- |
| CN(CCCCC[C@@H]1Cc2cc(O)ccc2[C@@H]2[C@@H]1[C@@H]1CC[C@H](O)[C@@]1(C)C[C@@H]2F)CCCSCCCC(F)(F)C(F)(F)F [Example 1, 11β-fluoro-7α-{5-[N-methyl-N-3-(4,4,5,5,5-pentafluoropentylthio)propylamino]pentyl}-oestra-1,3,5(10)-triene-3,17β-diol] | selectively active |  |
| CC/C(=C(\c1ccccc1)c1ccc(OCCN(C)C)cc1)c1ccccc1 [tamoxifen] |  | acts there as an oestroaenic antagonist |
